{"source": "paper PMC5980230", "about": "“Mucosal absorption of therapeutic peptides by harnessing the endogenous sorting of glycosphingolipids” (eLife, 2018)", "key": {"[1]": {"assay": "Intraperitoneal glucose tolerance test", "assay_type": "in vivo", "design": "unit not given here", "conditions": "IP injected, individual mice, not corrected", "description": "To test for absorption and biologic incretin activity in vivo, we gastrically gavaged equal doses (10 nmol/kg) of the C6:0-GM1-GLP-1 fusion, the unfused GLP-1 peptide (GLP-1 oral), or vehicle into wild-type mice and measured effects on glucose metabolism by glucose tolerance test (Figure 5C). […] The effect on glucose tolerance by gastrically administered C6:0-GM1-GLP-1 was similar to the effect achieved by the intraperitoneal injection of GLP-1 peptide alone, implicating an equally high level of bioavailability for the gastrically-delivered GM1-fusion molecule (Figure 5D).\nFor intraperitoneal glucose tolerance tests, a 10 nmol/kg dose was used to gavage overnight-fasted WT C57/BL/6 mice (male 7–9 weeks old) with GM1-GLP-1 fusion molecules or unfused GLP-1. Glucose measurements following i.p administration of 2 mg/g glucose solution were obtained from tail vein blood applied directly to glucose strips as in ([te Welscher et al., 2014])."}, "[2]": {"assay": "GLP-1 in blood by streptavidin capture and luciferase bioassay", "assay_type": "in vivo", "conditions": "individual mice, Ex 3 excluded from Figure 5E", "description": "We confirmed intestinal absorption of the C6:0-GM1-GLP-1 into the systemic circulation in two ways. First, we measured GLP-1 activity in blood samples by streptavidin capture and quantitative luciferase bioassay (Figure 5E). […] In a second approach, we synthesized an all D-amino acid (non-degradable) isomer of GLP-1 coupled to AF488 to allow for direct quantitative measurement of the […] isomer in the blood using the same streptavidin capture assay as described for our reporter peptide (Figure 5A). Again, we find evidence for absorption of the GLP-1 cargo when fused to the C6:0-GM1 transport vehicle, but no absorption for the unfused GLP-1 peptide (Figure 5F). These experiments were performed in two different laboratories, using two different animal facilities with the same results. In all assays (Figure 5C–5F), we find the efficiency of intestinal absorption enabled by fusion to C6:0-GM1 was again almost as efficient as for IP injection of the peptide alone, implicating a high level of bioavailability for the GM1-fusion molecules applied by gastric gavage."}, "[3]": {"conditions": "oral, 15 min after gastric gavage"}}, "note": "“And” between values parts separate entries of the source, which are not always exact repeats. Equal values may be shown once."}
{"substance": "GLP-1", "values": [{"measurement": "total area under glucose tolerance curves (AUC)", "setting": "[1]", "value": "2184 and 5775 and 3223 and 5783 and 10013 and 10613 and 14078 and 12630 and 14685 and 4613 and 1628 and 6533 and 2735 and 13695 and 6728 and 15120 and 10928 and 9270 and 7061 and 9383 and 7166 and 10043 and 10253"}, {"measurement": "GLP-1 in blood, corrected for vehicle", "setting": "[2]; IP-injected", "value": "6.787 fmols per 100uls blood and 7.191 fmols per 100uls blood and 4.472 fmols per 100uls blood and 6.8463 fmols per 100uls blood and 3.406 fmols per 100uls blood and 4.493 fmols per 100uls blood and 6.695 fmols per 100uls blood and 7.88 fmols per 100uls blood and 13.0711 fmols per 100uls blood and 7.126 fmols per 100uls blood"}, {"measurement": "GLP-1 in blood, raw data not corrected for vehicle", "setting": "[2]; IP-injected", "value": "8.132 fmols in 100 uls blood and 10.5063 fmols in 100 uls blood and 7.066 fmols in 100 uls blood and 8.153 fmols in 100 uls blood and 6.729 fmols in 100 uls blood and 7.914 fmols in 100 uls blood and 21.2711 fmols in 100 uls blood and 15.3265 fmols in 100 uls blood and 7.237 fmols in 100 uls blood and 7.641 fmols in 100 uls blood"}, {"measurement": "GLP-1 in blood, corrected for vehicle", "setting": "[2]; [3]", "value": "0.3766 fmols per 100uls blood and 0.3584 fmols per 100uls blood and 0.3383 fmols per 100uls blood and 0.4572 fmols per 100uls blood and -1.003 fmols per 100uls blood and -1.627 fmols per 100uls blood and 2.205 fmols per 100uls blood and 0.253 fmols per 100uls blood and 1.235 fmols per 100uls blood and 0.303 fmols per 100uls blood and -0.01924 fmols per 100uls blood and 0.2681 fmols per 100uls blood and -0.002238 fmols per 100uls blood and -1.223 fmols per 100uls blood and 0.4322 fmols per 100uls blood and -3.718 fmols per 100uls blood"}, {"measurement": "GLP-1 in blood, raw data not corrected for vehicle", "setting": "[2]; [3]", "value": "2.657 fmols in 100 uls blood and 2.033 fmols in 100 uls blood and 5.865 fmols in 100 uls blood and 3.913 fmols in 100 uls blood and 4.895 fmols in 100 uls blood and 3.963 fmols in 100 uls blood and 0.01476 fmols in 100 uls blood and 0.3021 fmols in 100 uls blood and 0.03176 fmols in 100 uls blood and 6.977 fmols in 100 uls blood and 8.632 fmols in 100 uls blood and 4.482 fmols in 100 uls blood and 0.8266 fmols in 100 uls blood and 0.8084 fmols in 100 uls blood and 0.7883 fmols in 100 uls blood and 0.9072 fmols in 100 uls blood"}]}
